This note sets out measurements from patent US10759774B2, “Inhibitors of hepatitis B virus targeting capsid assembly” (THE CURATORS OF THE UNIVERSITY OF MISSOURI, priority 2017, dated 2020).

Bounds are passed on as bounds.

Test system in one series: not listed separately
Description: Cytotoxicity, Cell Proliferation Kit II (XTT) (Table 2). It counts as cell-based. Particulars: human. (In general: Formazan colour is commonly taken as a measure of viable cells.)
As usually defined, the CC50 is the concentration at which the toxic effect on the cells reaches its halfway point. High values mean better tolerance by the cells, low ones harm at low concentration. The molecule `Cc1c(C(=O)Nc2ccccc2)sc(N)c1C(=O)Nc1ccc(F)c(F)c1` [ZW-933, 5-Amino-N4-(3,4-difluorophenyl)-3-methyl-N2-phenylthiophene-2,4-dicarboxamide] gave a 50% cytotoxic concentration (CC50) of 40.5 ± 5.1 µM.

Turning to `Cc1c(C(=O)Nc2ccc(F)c(F)c2)sc(N)c1C(=O)Nc1ccccc1` [ZW-892, 5-Amino-N2-(3,4-difluorophenyl)-3-methyl-N4-phenylthiophene-2,4-dicarboxamide], the half-maximal cytotoxic concentration (CC50) turned out to be 26.2 ± 2.7 µM.

For `Cc1c(C(=O)Nc2ccc(Cl)c(C(F)(F)F)c2)sc(N)c1C(N)=O` [ZW-1067, 5-Amino-N2-(4-chloro-3-(trifluoromethyl)phenyl)-3-methylthiophene-2,4-dicarboxamide], the CC50 is 72.1 ± 6.4 µM.

In turn, `Cc1cc(NC(=O)c2sc(N)c(C#N)c2C)ccc1F` [ZW-1044, 5-Amino-4-cyano-N-(4-fluoro-3-methylphenyl)-3-methylthiophene-2-carboxamide] gave a CC50 of 96.1 ± 10.1 µM.

For `Cc1c(C(=O)Nc2cc(F)c(F)c(Cl)c2)sc(N)c1C(N)=O` [ZW-1034, 5-Amino-N2-(3-chloro-4,5-difluorophenyl)-3-methylthiophene-2,4-dicarboxamide], the CC50 was determined as 71.8 ± 4.1 µM.

For `Cc1cc(NC(=O)c2sc(N)c(C(N)=O)c2C)ccc1Br` [ZW-1068, 5-Amino-N2-(4-bromo-3-methylphenyl)-3-methylthiophene-2,4-dicarboxamide], the CC50 amounted to 107 ± 7.2 µM.

As for `Cc1cc(NC(=O)c2c(N)sc(C(=O)Nc3ccccc3)c2C)ccc1F` [ZW-934, 5-Amino-N4-(4-fluoro-3-methylphenyl)-3-methyl-N2-phenylthiophene-2,4-dicarboxamide], the midpoint of cytotoxicity, the CC50, lay at 39.6 ± 2.6 µM.

As to `Cc1c(C(=O)Nc2ccccc2)sc(NC(=O)c2cc(Cl)cc(Cl)c2)c1C(N)=O` [ZW-1040, 5-(3,5-Dichlorobenzamido)-3-methyl-N2-phenylthiophene-2,4-dicarboxamide], the midpoint of cytotoxicity, the CC50, lay at 49.5 ± 0.1 µM.

The same series, now with this note: human, HepG2 cells.
Take `Cc1c(C(=O)Nc2ccccc2)sc(NC(=O)Cc2ccc(F)c(F)c2)c1C(N)=O` [ZW-1050]: the CC50 is > 100 µM.

In the case of `Cc1ccc(C(=O)Nc2sc(C(=O)Nc3ccccc3)c(C)c2C(N)=O)s1` [ZW-1056, 3-Methyl-5-(5-methylthiophene-2-carboxamido)-N2-phenylthiophene-2,4-dicarboxamide], the CC50 is > 100 µM.

For the molecule `CCOC(=O)c1c(N)sc(C(=O)Nc2ccc(F)c(C)c2)c1C` [ZW-1046, Ethyl 2-amino-5-((4-fluoro-3-methylphenyl)carbamoyl)-4-methylthiophene-3-carboxylate], the CC50 was > 100 µM.

For the molecule `Cc1c(C(=O)Nc2ccccc2)sc(NC(=O)c2ccsc2)c1C(N)=O` [ZW-1055, 3-Methyl-N2-phenyl-5-(thiophene-3-carboxamido)thiophene-2,4-dicarboxamide], the CC50 was > 100 µM.

Consider `Cc1c(C(=O)Nc2ccc(F)cc2)sc(N)c1C(N)=O` [ZW-1037, 5-Amino-N2-(4-fluorophenyl)-3-methylthiophene-2,4-dicarboxamide], for which the CC50 was > 100 µM.

Regarding `Cc1c(C(=O)Nc2ccc(F)c(C#N)c2)sc(N)c1C(N)=O` [ZW-1039, 5-Amino-N2-(3-cyano-4-fluorophenyl)-3-methylthiophene-2,4-dicarboxamide], the CC50 was > 100 µM.

`Cc1c(C(=O)Nc2ccc(F)c(C(F)F)c2)sc(N)c1C(N)=O` [ZW-1066, 5-Amino-N2-(3-(difluoromethyl)-4-fluorophenyl)-3-methylthiophene-2,4-dicarboxamide]: the CC50 is > 100 µM.

Turning to `Cc1c(C(=O)Nc2ccc(F)c(F)c2)sc(N)c1C(=O)Nc1ccc(F)c(F)c1` [ZW-932, 5-Amino-N2,N4-bis(3,4-difluorophenyl)-3-methylthiophene-2,4-dicarboxamide], half-maximal cytotoxicity (CC50) was put at 17.4 ± 1.3 µM.

As for `Cc1c(C(=O)Nc2ccccc2)sc(NC(=O)c2cn[nH]c2)c1C(N)=O` [ZW-1052, 3-Methyl-N2-phenyl-5-(1H-pyrazole-4-carboxamido)thiophene-2,4-dicarboxamide], the CC50 was > 100 µM.

Turning to `Cc1c(C(=O)Nc2ccccc2)sc(NC(=O)c2ccc(S(C)(=O)=O)cc2)c1C(N)=O` [ZW-1073, 3-Methyl-5-(4-(methylsulfonyl)benzamido)-N2-phenylthiophene-2,4-dicarboxamide], the CC50 is > 100 µM.

For the molecule `Cc1c(C(=O)Nc2ccccc2)sc(N)c1C(=O)Nc1ccccc1` [ZW-794, 5-Amino-3-methyl-N2,N4-diphenylthiophene-2,4-dicarboxamide], the CC50 is > 100 µM.

In the case of `Cc1c(C(=O)Nc2ccccc2)sc(NC(=O)c2csc([N+](=O)[O-])c2)c1C(N)=O` [ZW-1054, 3-Methyl-5-(5-nitrothiophene-3-carboxamido)-N2-phenylthiophene-2,4-dicarboxamide], the CC50 was > 100 µM.

Regarding `Cc1c(C(=O)Nc2ccc(F)c(C(F)(F)F)c2)sc(N)c1C(N)=O` [ZW-1057, 5-Amino-N2-(4-fluoro-3-(trifluoromethyl)phenyl)-3-methylthiophene-2,4-dicarboxamide], the CC50 was > 100 µM.

With `Cc1c(C(=O)Nc2ccc(F)c(F)c2)sc(N)c1C(N)=O` [ZW-896, 5-Amino-N2-(3,4-difluorophenyl)-3-methylthiophene-2,4-dicarboxamide], the CC50 was > 100 µM.

`Cc1c(C(=O)Nc2ccccc2)sc(NC(=O)c2nccs2)c1C(N)=O` [ZW-1053, 3-Methyl-N2-phenyl-5-(thiazole-2-carboxamido)thiophene-2,4-dicarboxamide]: the CC50 was > 100 µM.

Another series deals with HBV. As to the kind of experiment: Cell-based anti-HBV activity of HF9C6 analogs (Table 2; HBV DNA in HepAD38 cells). Particulars: Hepatitis B virus. Here is the method:
HepAD38 cells (5×10^4) were plated in 96-well plates in tet media. The next day, cells were washed 2× with PBS, and the media was replaced with complete media (DMEM, 10% FBS) containing compounds. Fresh complete media with compounds was added again after 2 days. After 2 additional days, cells were washed with PBS, trypsinized, and pelleted by centrifugation. The cell pellet was resuspended in 200 μl PBS, and DNA was extracted and analyzed as above. For dose responses, values were plotted in GraphPad Prism 5 and analyzed with the log (inhibitor) vs. normalized response—variable slope equation.
HepAD38 cells were seeded in 96-well plates (3×10^4 cells/well) in tet media. […] After 2 days, the media was removed, and fresh media containing compounds was added. After 2 additional days, cells were washed with PBS and lysed with 10 mM Tris (pH 7.5), 1mM EDTA, 100mM NaCl, 1% NP-40 at 37° C. for 30 min. 60 μl of lysate was added to 60 μl of 1 M NaOH, 1.5 M NaCl and incubated at RT for 5 min to denature DNA. 120 μl of 1 M Tris (pH 7.4), 2 M NaCl was added. Samples were transferred to positively charged nylon membranes (Roche) using a vacuum dot blot manifold. The wells were washed with 200 μl of 20× SSC (3M NaCl, 300 mM sodium citrate), and the DNA was UV crosslinked to the membranes. […] Membranes were incubated with CDP-STAR® chemiluminescent substrate (Roche), imaged by chemiluminescence, and quantified by densitometry. Values were plotted in GraphPad Prism 5 and analyzed with the log (inhibitor) vs. normalized response—variable slope equation.
What is called EC50 is the concentration at which the effect is half-maximal. As to `CCOC(=O)c1sc2[nH]c(Cc3ccccc3)nc(=O)c2c1C` [ZW-772, Ethyl 2-benzyl-5-methyl-4-oxo-1,4-dihydrothieno[2,3-d]pyrimidine-6-carboxylate], the EC50 was > 10 µM.

Staying with this series, now noted: Hepatitis B virus, Table 2, cell-based, read-out: EC50.
For the molecule `Cc1c(C(=O)Nc2ccccc2)sc(N)c1C(=O)NCc1ccc(C(F)(F)F)cc1` [ZW-790, 5-Amino-3-methyl-N2-phenyl-N4-(4-(trifluoromethyl)benzyl)thiophene-2,4-dicarboxamide], the EC50 is > 10 µM.

For `Cc1c(C(=O)Nc2ccccc2)sc(NC(=O)Cc2ccc(F)c(F)c2)c1C(N)=O` [ZW-1050], the EC50 is ~10 µM.

With `CCOC(=O)c1sc2[nH]c(Cc3ccc(-c4ccccc4)cc3)nc(=O)c2c1C` [ZW-774, Ethyl 2-([1,1′-biphenyl]-4-ylmethyl)-5-methyl-4-oxo-1,4-dihydrothieno[2,3-d]pyrimidine-6-carboxylate], the EC50 was > 10 µM.

Consider `Cc1c(C(=O)Nc2ccccc2)sc(N)c1C(=O)NC1CC1` [ZW-792, 5-Amino-N4-cyclopropyl-3-methyl-N2-phenylthiophene-2,4-dicarboxamide], for which the EC50 was > 10 µM.

Regarding `COc1ccc(CNC(=O)c2c(N)sc(C(=O)Nc3ccccc3)c2C)cc1` [ZW-791, 5-Amino-N4-(4-methoxybenzyl)-3-methyl-N2-phenylthiophene-2,4-dicarboxamide], the EC50 was > 10 µM.

`Cc1c(C(=O)Nc2ccc(F)c(F)c2)sc(N)c1C(=O)NC1CCCC1` [ZW-894, 5-Amino-N4-cyclopentyl-N2-(3,4-difluorophenyl)-3-methylthiophene-2,4-dicarboxamide]: the EC50 was > 10 µM.

Turning to `CCOC(=O)c1sc2[nH]c(Cc3cc(C)cc(C)c3)nc(=O)c2c1C` [ZW-773, Ethyl 2-(3,5-dimethylbenzyl)-5-methyl-4-oxo-1,4-dihydrothieno[2,3-d]pyrimidine-6-carboxylate], the EC50 is > 10 µM.

As to `Cc1c(C(=O)Nc2ccccc2)sc(N)c1C(=O)NC1CCCC1` [ZW-895, 5-Amino-N4-cyclopentyl-3-methyl-N2-phenylthiophene-2,4-dicarboxamide], the EC50 was > 10 µM.

`Cc1ccc(NC(=O)c2sc(N)c(C(N)=O)c2C)cc1` [ZW-771, 5-Amino-3-methyl-N2-(p-tolyl)thiophene-2,4-dicarboxamide]: the EC50 was > 10 µM.

With `CCOC(=O)c1sc2[nH]c(C3CCCCC3)nc(=O)c2c1C` [ZW-777, Ethyl 2-cyclohexyl-5-methyl-4-oxo-1,4-dihydrothieno[2,3-d]pyrimidine-6-carboxylate], the EC50 was > 10 µM.

On to `Cc1c(C(=O)NCc2ccccc2)sc(N)c1C(N)=O` [ZW-770, 5-Amino-N2-benzyl-3-methylthiophene-2,4-dicarboxamide], for which the EC50 was ~10 µM.

On to `CCOC(=O)c1sc2[nH]c(-c3ccc(C)c(F)c3)nc(=O)c2c1C` [ZW-775, Ethyl 2-(3-fluoro-4-methylphenyl)-5-methyl-4-oxo-1,4-dihydrothieno[2,3-d]pyrimidine-6-carboxylate], for which the concentration giving a half-maximal response (EC50) was > 10 µM.

For `CCOC(=O)c1sc2[nH]c(Cc3ccc(F)cc3)nc(=O)c2c1C` [ZW-776, Ethyl 2-(4-fluorobenzyl)-5-methyl-4-oxo-1,4-dihydrothieno[2,3-d]pyrimidine-6-carboxylate], the EC50 was > 10 µM.

Regarding `Cc1c(C(=O)Nc2ccc(F)c(F)c2)sc(N)c1C(=O)Nc1ccc(Cl)cc1` [ZW-893, 5-Amino-N4-(4-chlorophenyl)-N2-(3,4-difluorophenyl)-3-methylthiophene-2,4-dicarboxamide], the EC50 is > 10 µM.

Regarding `COc1ccc(NC(=O)c2sc(N)c(C(N)=O)c2C)cc1` [ZW-769, 5-Amino-N2-(4-methoxyphenyl)-3-methylthiophene-2,4-dicarboxamide], the EC50 was ~10 µM.
